{"source": "patent US12018258B2", "about": "“Mobile-CRISPRi plasmids and related methods” (CZ Biohub SF, LLC, priority 2019, dated 2024)", "key": {"Enterobacter aerogenes": {"test_system": "Enterobacter aerogenes", "conditions": "MIC assay, n=3", "description": "(§1) MIC assays were performed using the broth microdilution method as previously described in Wiegand et al. Agar and broth dilution methods to determine the minimal inhibitory concentration (MIC) of antimicrobial substances. Nat. Protoc. 3, 163 (2008) (28), except that 0.1% arabinose (for P. aeruginosa) or 100 μM IPTG (for E. aerogenes) was added to induce dcas9 expression, and K. pneumoniae cultures were shaken to reduce clumping. Three biological replicates were grown for MIC assays. Growth curves shown in FIG. 3 were set up in exactly the same manner as the MIC assays, except that cultures were grown with agitation in a plate reader (BioTek) for ˜16 hrs. P-values for comparing MICs between control sgRNA and folA sgRNA strains were obtained using an unpaired two-tailed t-test with Welch's correction to account for unequal variances between samples and calculated using GraphPad Prism 7.0e."}, "Klebsiella pneumoniae": {"test_system": "Klebsiella pneumoniae", "conditions": "MIC assay, n=3", "description": "as §1"}, "[1]": {"test_system": "pathogenic Gammaproteobacteria associated with antibiotic resistance", "quoted_text": "MIC assays were performed using the broth microdilution method as previously described in Wiegand et al. Agar and broth dilution methods to determine the minimal inhibitory concentration (MIC) of antimicrobial substances. […] 3, 163 (2008) (28), except that 0.1% arabinose (for P. aeruginosa) or 100 μM IPTG (for E. aerogenes) was added to induce dcas9 expression, and K. pneumoniae cultures were shaken to reduce clumping. Three biological replicates were grown for MIC assays. […] P-values for comparing MICs between control sgRNA and folA sgRNA strains were obtained using an unpaired two-tailed t-test with Welch's correction to account for unequal variances between samples and calculated using GraphPad Prism 7.0e."}}}
{"compound": "COc1cc(Cc2cnc(N)nc2N)cc(OC)c1OC", "note": "[trimethoprim]", "values": [{"measurement": "sensitivity to trimethoprim after CRISPRi knockdown of folA", "setting": "Enterobacter aerogenes", "result": "increased sensitivity"}, {"measurement": "sensitivity to trimethoprim after CRISPRi knockdown of folA", "setting": "Klebsiella pneumoniae", "result": "increased sensitivity"}, {"measurement": "growth of the folA knockdown strains", "setting": "[1]; trimethoprim concentrations below the MIC for the wild type bacteria, data not shown", "result": "completely inhibited growth"}, {"measurement": "shift of the minimal inhibitory concentration (MIC)", "setting": "[1]; {}", "result": "2-4 fold"}]}
